Test results: EP4638411B1, “PLASTICIZER” (priority 2022, dated 2024)

Tests used:
[1] = Viscosity at 20 °C (DIN 51562-1); assay type: physicochemical
From the text: (§1) Die nachfolgende Tabelle 3 gibt die Eigenschaften der wie oben beschriebenen Verbindungen wieder. Tabelle 3.

[2] = Water content (DIN 51777-1); assay type: physicochemical
From the text: as §1

[3] = Dissolution (gelling) temperature of PVC in plasticizer, plate/plate rheometer, temperature at viscosity maximum; assay type: physicochemical; details: 5 phr PVC, 95 phr plasticizer, 2 phr Ba-Zn stabilizer; 5 °C/min; mean of four measurements
From the text: Anwendungstechnische Prüfungen: II.a) Bestimmung der Lösetemperatur der offenbarungsgemäßen Weichmacher-Zusammensetzungen: Zur Bestimmung der Lösetemperatur der offenbarungsgemäßen Weichmacher-Zusammensetzungen wurden etwa 10 Gramm einer Mischungen nach folgender Rezeptur (siehe Tabelle 4) hergestellt. Die Mischung wird mit einer Pipette aufgerührt und dann sofort ca. 30 Tropfen der homogenen Mischung auf das Platte-Platte-Messsystem gegeben. Tabelle 4.
Die Viskositätsmessungen wurden mit einem beheizbaren Oszillations- und Rotations-Rheometer MCR 302 von Anton Paar in einem Rotationsversuch durchgeführt.
Die Messung erfolgte in zwei Rampen. Die erste Rampe für die Dauer von 120 s bei D=10 (1/s) und 30 °C dient zum Temperieren der Probe. Die zweite Rampe bei D=10 (1/s) und kontinuierlicher Temperatursteigerung von 5 °C min ist dann die eigentliche Messung. Der Abbruch erfolgte manuell, nachdem das Viskositätsmaximum überschritten war. Als Ergebnis der Messung wird die Temperatur ermittelt, bei der das Maximum der Viskosität erreicht ist. Diese Messungen werden insgesamt viermal durchgeführt und der arithmetische Mittelwert aller vier Messungen als das Endergebnis gewertet. Il.b) Herstellung und Prüfung von Weich-PVC-Folien hergestellt unter Einsatz erfindungsgemäßer Weichmacher-Zusammensetzungen

[4] = Density at 20 °C (DIN 51757 method 4); assay type: physicochemical; details: DIN 51757 Verf. 4
From the text: as §1

[5] = Acid number (DIN EN ISO 2114); assay type: physicochemical
From the text: as §1

[6] = Refractive index nD20 (DIN 51423-2); assay type: physicochemical
From the text: as §1

[7] = HCl residual stability of plasticized PVC films at 200 °C; details: PVC film, 60 phr plasticizer
From the text: Rezeptur: siehe nachfolgende Tabelle 5. Tabelle 5.
150 g PVC (Homopolymeres Suspensions-PVC, Markenname Inovyn® 271 PC); 90 g Weichmacher-Zusammensetzung und 3 g Ba/Zn-Stabilisator, Markenname Baerostab® UBZ 760 XLP RF wurden mit einem Handmixer bei Raumtemperatur vermischt. Die Mischung wurde anschließend auf einem ölbeheizten Labormischwalzwerk (Fa. Collin, Automatikwalzwerk Typ W250M, Durchmesser: 252 mm, Breite: 450 mm) plastifiziert und zu einem Walzfell verarbeitet. Die Temperatur der beiden Walzen betrug jeweils 180 °C; die Drehzahlen lagen bei 15 Umdrehungen/min. (vordere Walze) und 12 Umdrehungen/min. (hintere Walze); die Walzzeit betrug 5 Minuten. Der Walzenspalt wurde auf 0,5 mm eingestellt. Man erhielt so ein Walzfell mit einer Dicke von 0,53 mm. Das abgekühlte Walzfell wurde anschließend bei einer Temperatur von 190 °C und einem Druck von 150 bar innerhalb von 180 s auf einer Presse vom Typ "Laborplattenpresse 400 P" der Fa. Collin zu einer Weich-PVC-Folie mit einer Dicke von 0,50 mm verpresst. Unter Beibehaltung des Pressdrucks wurde die Pressfolie innerhalb von 10 Minuten auf ca. 40 °C abgekühlt.
Die Bestimmung der HCl-Reststabilität erfolgt nach DIN EN 60811-405 (VDE 0473-811-405): Als Prüfgerät wird ein Metallblock-Thermostat von Liebisch Labortechnik bei einer Prüftemperatur von 200 °C verwendet. Es wird immer eine 3-fach Bestimmung vorgenommen. Ca. 50 mg der Walzfolien werden abgewogen, auf 3 cm Länge zugeschnitten und im unteren Teil des Glasröhrchens positioniert. Am oberen Ende des Glasröhrchens wird ein ca. 10 mm langer Indikatorpapierstreifen (Lackmusspapier) so positioniert, dass ca. 2 mm herausstehen. Die so präparierten Glasröhrchen werden in den Metallblock positioniert und die Zeit notiert, bis ein Farbumschlag in Richtung Rot auftritt. Aus den drei Messwerten der drei Proben wird der arithmetische Mittelwert gebildet.

Molecule	Viskosität, 20 °C [1] [mPa·s]	Wassergehalt [2]	Lösetemperatur [3] [°C]	Dichte, 20 °C [4]	Säurezahl [5]	Brechzahl, n^D20 [6]	HCl-Reststabilität [7]
CC(C)CCCC(C)CCOC(=O)CCC(=O)CCC(=O)OCCC(C)CCCC(C)C (stereo not shown) [Verbindung I.2, 4-Oxoheptandisäure-di-(3,7-dimethyloctylester)]	52	0,013 Gew.-%	147	0,9456 g/cm^3	0,26 mg KOH/g	1,5160	13,4 min
CCCCCC(CCC)COC(=O)CCC(=O)CCC(=O)OCC(CCC)CCCCC (stereo not shown) [Verbindung I.1, 4-Oxoheptandisäure-di-(2-propylheptylester)]	51	0,003 Gew.-%	139	0,9473 g/cm^3	1,1 mg KOH/g	1,4553	15 min
CCCCC(CC)COC(=O)CCC(=O)CCC(=O)OCC(CC)CCCC (stereo not shown) [4-Oxoheptandisäure-di-(2-ethylhexylester), reference compound]	32	0,07 Gew.-%	127	0,9661 g/cm^3	1,5 mg KOH/g	1,4534	11,1 min
4-Oxoheptandisäure-di-isotridecylester [Verbindung I.6]	101	0,016 Gew.-%	162	0,9365 g/cm^3	0,31 mg KOH/g	1,4605	12 min
